Target: T1, FLT3 (Homo sapiens, UniProt P36888)
T1 sequence (P36888 27-993): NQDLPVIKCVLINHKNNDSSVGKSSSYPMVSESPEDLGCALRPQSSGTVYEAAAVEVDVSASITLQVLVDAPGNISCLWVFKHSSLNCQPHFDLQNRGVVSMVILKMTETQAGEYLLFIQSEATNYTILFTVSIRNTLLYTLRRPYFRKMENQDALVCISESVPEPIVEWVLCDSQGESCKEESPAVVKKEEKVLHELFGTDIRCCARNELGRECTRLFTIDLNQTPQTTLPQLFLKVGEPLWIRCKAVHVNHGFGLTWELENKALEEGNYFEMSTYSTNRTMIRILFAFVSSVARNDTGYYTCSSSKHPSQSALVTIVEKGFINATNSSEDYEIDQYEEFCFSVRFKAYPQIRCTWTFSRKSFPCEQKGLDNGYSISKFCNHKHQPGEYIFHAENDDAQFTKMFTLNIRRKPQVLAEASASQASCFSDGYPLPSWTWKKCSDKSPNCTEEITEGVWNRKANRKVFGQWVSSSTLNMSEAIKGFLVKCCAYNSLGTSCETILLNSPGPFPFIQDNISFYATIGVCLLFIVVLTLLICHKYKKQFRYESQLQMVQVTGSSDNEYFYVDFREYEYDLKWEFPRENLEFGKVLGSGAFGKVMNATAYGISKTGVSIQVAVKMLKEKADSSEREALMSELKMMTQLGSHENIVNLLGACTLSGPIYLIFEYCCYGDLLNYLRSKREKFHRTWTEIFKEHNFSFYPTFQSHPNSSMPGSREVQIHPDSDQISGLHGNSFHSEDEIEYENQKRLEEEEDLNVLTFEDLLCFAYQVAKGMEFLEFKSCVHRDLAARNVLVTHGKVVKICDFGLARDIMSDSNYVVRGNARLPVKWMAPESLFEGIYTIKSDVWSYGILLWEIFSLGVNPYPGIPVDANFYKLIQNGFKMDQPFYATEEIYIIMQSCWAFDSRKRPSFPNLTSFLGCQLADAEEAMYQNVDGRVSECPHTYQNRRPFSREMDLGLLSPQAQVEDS
Assay: DiscoverX KINOMEscan competition binding, FLT3
Design: purchased Reaction Biology (RBC), HotSpot kinase assay

Structure (SMILES)	Kd
CC1(c2cn3c(-c4cccc(N[C@H]5CNC[C@@H]5F)n4)cnc3cn2)CC1 [Compound 1, N-((3S,4S)-4-fluoropyrrolidin-3-yl)-6-(6-(1-methylcyclopropyl)imidazo[1,2-a]pyrazin-3-yl)pyridin-2-amine]	0.049 nM
CC1(c2cn3c(-c4cccc(N[C@@H]5CCNC5)n4)cnc3cn2)CC1 [Compound 3, (R)-6-(6-(1-methylcyclopropyl)imidazo[1,2-a]pyrazin-3-yl)-N-(pyrrolidin-3-yl)pyridin-2-amine]	0.056 nM
CC1(c2cn3c(-c4cccc(N[C@H]5CNCC56CC6)n4)cnc3cn2)CC1 [Compound 5, (R)-N-(6-(6-(1-methylcyclopropyl)imidazo[1,2-a]pyrazin-3-yl)pyridin-2-yl)-5-azaspiro[2.4]heptan-7-amine]	0.027 nM
FC(F)(F)C1(c2cn3c(-c4cccc(N[C@@H]5CCNC5)n4)cnc3cn2)CC1 [Compound 10, (R)-N-(pyrrolidin-3-yl)-6-(6-(1-(trifluoromethyl)cyclopropyl)imidazo[1,2-a]pyrazin-3-yl)pyridin-2-amine]	0.38 nM
FC(F)c1cn2c(-c3cccc(N[C@H]4CNC[C@@H]4F)n3)cnc2cn1 [Compound 16, 6-(6-(difluoromethyl)imidazo[1,2-a]pyrazin-3-yl)-N-((3S,4S)-4-fluoropyrrolidin-3-yl)pyridin-2-amine]	0.42 nM
FC(F)c1cn2c(-c3cccc(N[C@H]4CNCC[C@@H]4F)n3)cnc2cn1 [Compound 25, 6-(6-(difluoromethyl)imidazo[1,2-a]pyrazin-3-yl)-N-((3S,4S)-4-fluoropiperidin-3-yl)pyridin-2-amine]	0.13 nM
CC(C)(O)c1cn2c(-c3cccc(N[C@@H]4CCCNC4)n3)cnc2cn1 [Compound 30, (R)-2-(3-(6-(piperidin-3-ylamino)pyridin-2-yl)imidazo[1,2-a]pyrazin-6-yl)propan-2-ol]	1.5 nM
CC(C)(O)c1cn2c(-c3cccc(N[C@H]4CNCC[C@@H]4F)n3)cnc2cn1 [Compound 31, 2-(3-(6-(((3S,4S)-4-fluoropiperidin-3-yl)amino)pyridin-2-yl)imidazo[1,2-a]pyrazin-6-yl)propan-2-ol]	0.55 nM
FC(F)(F)COc1cn2c(-c3cccc(N[C@@H]4CCNC4)n3)cnc2cn1 [Compound 38, (R)-N-(pyrrolidin-3-yl)-6-(6-(2,2,2-trifluoroethoxy)imidazo[1,2-a]pyrazin-3-yl)pyridin-2-amine]	0.61 nM
F[C@H]1CNC[C@@H]1Nc1cccc(-c2cnc3cnc(C4CC4)cn23)n1 [Compound 50, 6-(6-cyclopropylimidazo[1,2-a]pyrazin-3-yl)-N-((3S,4S)-4-fluoropyrrolidin-3-yl)pyridin-2-amine]	0.062 nM
Cn1cc(-c2cn3c(-c4cccc(N[C@H]5CNC[C@@H]5F)n4)cnc3cn2)cn1 [Compound 52, N-((3S,4S)-4-fluoropyrrolidin-3-yl)-6-(6-(1-methyl-1H-pyrazol-4-yl)imidazo[1,2-a]pyrazin-3-yl)pyridin-2-amine]	0.035 nM

Source: patent US12612410B2 (CHILDREN'S HOSPITAL MEDICAL CENTER, priority 2020, dated 2026)
